Laboratory results from ChEMBL document CHEMBL1152024, “Synthesis and bronchospasmolytic properties of some pyridazinone derivatives” (1993).

organism: Cavia porcellus; test: Tested in vitro for its effect on tracheal relaxation in guinea pig trachea, activity expressed as pD2 (-log of molar concentration which gives a half maximal relaxing effect); format: functional

First: Oc1ccc(N2CCN(CC(O)c3ccc(Cl)c(Cl)c3)CC2)nn1 (configuration not stated)
Second: Cn1c(=O)c2nc[nH]c2n(C)c1=O.O [THEOPHYLLINE]
The pD2 of the first is higher: 4.79 for the first, 4 for the second.

organism: Cavia porcellus; test: Tested in vitro for its effect on tracheal relaxation in guinea pig trachea, activity expressed as percentage increase in the velocity of the flux of perfusion at concentration 30 ug/mL; format: functional

First: Nc1c(Cl)cc(C(O)CN2CCN(c3ccc(O)nn3)CC2)cc1Cl (configuration not stated)
Second: Oc1ccc(N2CCN(CC(O)c3ccc(Cl)c(Cl)c3)CC2)nn1 (configuration not stated)
The Increase of the first is lower: 54% for the first, 87% for the second.

Compared with CC(=O)Nc1ccc(C(O)CN2CCN(c3cnnc(O)c3Cl)CC2)cc1Cl (configuration not stated), Oc1nncc(N2CCN(CC(O)c3ccc(Cl)c(Cl)c3)CC2)c1Cl (configuration not stated) is lower in Increase: 4% for the first, 3% for the second.

Compared with O=c1ccc(Cl)nn1CCN1CCN(CC(O)c2ccc(Cl)c(Cl)c2)CC1 (configuration not stated), Nc1c(Cl)cc(C(O)CN2CCN(CCn3nc(Cl)ccc3=O)CC2)cc1Cl (configuration not stated) is lower in Increase: 46% for the first, 22% for the second.

Compared with CC(=O)Nc1ccc(C(O)CN2CCN(CCn3nc(Cl)ccc3=O)CC2)cc1Cl (configuration not stated), CC(=O)Nc1ccc(C(O)CN2CCN(c3ccc(O)nn3)CC2)cc1Cl (configuration not stated) is higher in Increase: 4% for the first, 23% for the second.

For Nc1c(Cl)cc(C(O)CN2CCN(c3cnnc(O)c3Cl)CC2)cc1Cl (configuration not stated), the Increase was 19%.

organism: Cavia porcellus; test: Tested in vitro for its effect on tracheal relaxation in guinea pig trachea, activity expressed as percentage increase in the velocity of the flux of perfusion at concentration 10 ug/mL; format: functional

For Cn1c(=O)c2nc[nH]c2n(C)c1=O.O [THEOPHYLLINE], the Increase was 55%.
